From PMC4589676, “Functional characterization and stability improvement of a ‘thermophilic-like’ ene-reductase from Rhodococcus opacus 1CP” (Frontiers in Microbiology, 2015)
Values belong to the compound of their own block, whether it stands above or below them.

How the values were obtained:
OYERo2 [1] = biological target: T1, OYERo2 (Rhodococcus opacus, UniProt A0A1B1KA86); experiment: flavin absorption spectra (charge-transfer complex); format: binding; details: phenolic ligand
T1 construct: gene O4328_33150; full length, N-terminal His10-tag kept, codon-optimised synthetic gene (1101 bp) in pET16bP, E. coli BL21 (DE3); 387 residues, theoretical 41,615 Da; variant OYERo2a is GenBank KR349312
Description: flavin absorption spectra (charge-transfer complex) on OYERo2 | OYERo2 forms charge-transfer complexes with phenolic ligands. Next to 4-hydroxybenzaldehyde

OYERo2 [2] = biological target: T2, OYERo2 (Rhodococcus opacus, UniProt A0A1B1KA86, A92R/Q93R/L94I/E95R/Y96E); experiment: absorption spectra and RP-HPLC of extracted flavin; format: binding; details: variant OYERo2a; same
T2 construct: gene O4328_33150; full length, N-terminal His10-tag kept, codon-optimised synthetic gene (1101 bp) in pET16bP, E. coli BL21 (DE3); 387 residues, theoretical 41,615 Da; variant OYERo2a is GenBank KR349312

OYERo2 [3] = biological target: T1, OYERo2; experiment: absorption spectra and RP-HPLC of extracted flavin; format: binding; details: non-covalent, 1:1, co-purified
[4] = biological target: OYERo2, ene-reductase (old yellow enzyme) from Rhodococcus opacus 1CP (Rhodococcus opacus 1CP); experiment: SEC; analytical gel filtration, Superdex 200 HR 10/30, room temperature, 50 mM phosphate buffer pH 7.1 with 150 mM NaCl; 30 uM enzyme, elution buffer with 200 uM NADPH
[5] = biological target: OYERo2, ene-reductase (old yellow enzyme) from Rhodococcus opacus 1CP (Rhodococcus opacus 1CP); experiment: SEC; analytical gel filtration, Superdex 200 HR 10/30, room temperature, 50 mM phosphate buffer pH 7.1 with 150 mM NaCl; high protein concentration (119 uM for OYERo2)
[6] = biological target: OYERo2, ene-reductase (old yellow enzyme) from Rhodococcus opacus 1CP (Rhodococcus opacus 1CP); experiment: SEC; analytical gel filtration, Superdex 200 HR 10/30, room temperature, 50 mM phosphate buffer pH 7.1 with 150 mM NaCl; lower protein concentration (59 and 30 uM for OYERo2)

T1 sequence (A0A1B1KA86 entry or part of it): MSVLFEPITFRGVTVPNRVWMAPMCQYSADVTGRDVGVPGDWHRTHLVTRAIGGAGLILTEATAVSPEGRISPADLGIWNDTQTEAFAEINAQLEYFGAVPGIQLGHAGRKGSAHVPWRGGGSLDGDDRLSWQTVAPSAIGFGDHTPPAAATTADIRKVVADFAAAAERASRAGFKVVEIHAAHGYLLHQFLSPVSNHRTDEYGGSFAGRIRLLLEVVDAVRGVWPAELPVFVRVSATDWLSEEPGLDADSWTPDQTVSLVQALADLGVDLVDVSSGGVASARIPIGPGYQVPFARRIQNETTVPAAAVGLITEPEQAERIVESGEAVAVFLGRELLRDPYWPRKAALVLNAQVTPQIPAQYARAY
T2 sequence (A0A1B1KA86 entry or part of it A92R/Q93R/L94I/E95R/Y96E): as the sequence (A0A1B1KA86 entry or part of it) above, with A92R, Q93R, L94I, E95R, Y96E counted along it

Compound: O=Cc1ccc(O)cc1 [4-hydroxybenzaldehyde]
flavin absorption spectra (charge-transfer complex) (OYERo2 [1]): OYERo2 forms charge-transfer complexes with phenolic ligands. Next to 4-hydroxybenzaldehyde

Compound: Cc1cc2nc3c(=O)[nH]c(=O)nc-3n(C[C@H](O)[C@H](O)[C@H](O)COP(=O)(O)O)c2cc1C [FMN]
absorption spectra and RP-HPLC of extracted flavin (OYERo2 [2]): RP-HPLC on flavin samples extracted from purified OYERo2 and OYERo2a
absorption spectra and RP-HPLC of extracted flavin (OYERo2 [3]): The type of flavin cofactor was identified as FMN using RP-HPLC

stoichiometry N [4]: 2
stoichiometry N [5]: 4
stoichiometry N [6]: 2
Compound: OYERo2, ene-reductase (old yellow enzyme) from Rhodococcus opacus 1CP
